# Source: patent US12030878B2 (BRISTOL-MYERS SQUIBB COMPANY, priority 2017, dated 2024)
# pIC50: −log10 of the molar value.
# Experiments:
# Type in all cases: cell-based
# human TLR9 = target: T1, human TLR9 (Homo sapiens, UniProt Q9NR96); test: TLR9 inhibition reporter assay (HEK-Blue SEAP); details: HEK-Blue cells overexpressing human TLR9, stimulated with ODN2006 5 nM, 22 hour incubation
# T1 construct: host or cells: HEK-Blue cells
# T1 sequence (Q9NR96 26-1032): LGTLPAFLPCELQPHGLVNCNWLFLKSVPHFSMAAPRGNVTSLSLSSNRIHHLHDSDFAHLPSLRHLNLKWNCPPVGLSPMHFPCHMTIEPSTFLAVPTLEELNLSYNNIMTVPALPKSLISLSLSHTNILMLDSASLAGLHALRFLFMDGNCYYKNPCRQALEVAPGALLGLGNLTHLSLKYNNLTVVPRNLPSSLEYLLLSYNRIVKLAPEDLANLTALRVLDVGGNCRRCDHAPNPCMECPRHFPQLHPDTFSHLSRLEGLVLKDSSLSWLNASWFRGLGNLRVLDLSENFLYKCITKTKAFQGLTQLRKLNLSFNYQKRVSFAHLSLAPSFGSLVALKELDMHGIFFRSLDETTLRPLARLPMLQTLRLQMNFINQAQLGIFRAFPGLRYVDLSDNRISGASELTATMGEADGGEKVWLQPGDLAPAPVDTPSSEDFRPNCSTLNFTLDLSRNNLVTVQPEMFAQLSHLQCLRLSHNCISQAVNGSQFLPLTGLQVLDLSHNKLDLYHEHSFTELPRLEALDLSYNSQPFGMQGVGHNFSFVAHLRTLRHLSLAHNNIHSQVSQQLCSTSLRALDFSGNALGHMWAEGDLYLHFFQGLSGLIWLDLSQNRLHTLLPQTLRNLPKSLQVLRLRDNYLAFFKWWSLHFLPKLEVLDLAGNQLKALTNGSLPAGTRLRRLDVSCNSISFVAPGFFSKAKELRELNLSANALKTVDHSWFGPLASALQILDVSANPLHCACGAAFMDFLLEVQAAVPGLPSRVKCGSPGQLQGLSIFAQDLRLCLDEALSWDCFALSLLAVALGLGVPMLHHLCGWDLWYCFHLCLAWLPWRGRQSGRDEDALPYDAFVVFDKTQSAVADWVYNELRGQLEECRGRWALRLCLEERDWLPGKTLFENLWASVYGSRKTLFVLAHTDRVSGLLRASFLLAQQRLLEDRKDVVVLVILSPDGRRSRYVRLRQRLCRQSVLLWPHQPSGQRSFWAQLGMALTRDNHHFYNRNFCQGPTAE
# Procedure, shortened: (§1)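 Test compounds, final 0.05 nM–50 μM, pre-treat HEK-Blue human TLR7, TLR8 or TLR9 reporter cells before agonist addition (TLR8 R848 15.9 μM; TLR7 gardiquimod 7.5 μM; TLR9 ODN2006 5 nM). Incubation runs 22 h, 37 °C. SEAP detection gives percent inhibition against DMSO and reference-inhibitor controls.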
# human TLR8 = target: T2, human TLR8 (Homo sapiens, UniProt Q9NR97); test: TLR8 inhibition reporter assay (HEK-Blue SEAP); details: HEK-Blue cells overexpressing human TLR8, stimulated with R848 15.9 μM, 22 hour incubation
# T2 construct: host or cells: HEK-Blue cells
# T2 sequence (Q9NR97 27-1041): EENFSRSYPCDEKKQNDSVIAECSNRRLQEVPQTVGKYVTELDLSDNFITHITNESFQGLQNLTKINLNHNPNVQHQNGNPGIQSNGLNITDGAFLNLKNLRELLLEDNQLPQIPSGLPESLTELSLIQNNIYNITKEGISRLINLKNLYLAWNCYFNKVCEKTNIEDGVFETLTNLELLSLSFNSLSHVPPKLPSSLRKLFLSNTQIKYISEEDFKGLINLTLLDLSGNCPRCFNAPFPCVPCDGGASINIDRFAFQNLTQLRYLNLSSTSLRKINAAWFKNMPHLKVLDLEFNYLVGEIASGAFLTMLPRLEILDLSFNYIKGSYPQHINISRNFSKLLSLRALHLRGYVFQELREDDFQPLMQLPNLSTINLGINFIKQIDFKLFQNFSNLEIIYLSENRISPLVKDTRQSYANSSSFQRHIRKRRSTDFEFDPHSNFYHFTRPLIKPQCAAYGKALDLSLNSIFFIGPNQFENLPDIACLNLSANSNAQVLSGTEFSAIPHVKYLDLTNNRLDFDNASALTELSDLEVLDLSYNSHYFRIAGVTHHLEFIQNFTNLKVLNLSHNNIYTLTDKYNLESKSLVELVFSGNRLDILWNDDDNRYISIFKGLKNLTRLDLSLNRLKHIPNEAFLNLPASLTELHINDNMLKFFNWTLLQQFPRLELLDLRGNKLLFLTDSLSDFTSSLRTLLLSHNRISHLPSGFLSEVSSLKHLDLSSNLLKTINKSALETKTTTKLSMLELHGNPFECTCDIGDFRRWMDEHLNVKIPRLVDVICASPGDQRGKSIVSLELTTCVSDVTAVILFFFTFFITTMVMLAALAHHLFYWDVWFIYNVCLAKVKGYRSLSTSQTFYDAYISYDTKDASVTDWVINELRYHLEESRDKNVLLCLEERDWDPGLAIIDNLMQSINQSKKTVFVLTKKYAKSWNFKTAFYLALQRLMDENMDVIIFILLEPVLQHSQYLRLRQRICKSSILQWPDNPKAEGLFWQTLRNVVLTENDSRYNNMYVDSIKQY
# Procedure, shortened: as §1
# human TLR7 = target: T3, human TLR7 (Homo sapiens, UniProt Q9NYK1); test: TLR7 inhibition reporter assay (HEK-Blue SEAP); details: HEK-Blue cells overexpressing human TLR7, stimulated with gardiquimod 7.5 μM, 22 hour incubation
# T3 construct: host or cells: HEK-Blue cells
# T3 sequence (Q9NYK1 27-1049): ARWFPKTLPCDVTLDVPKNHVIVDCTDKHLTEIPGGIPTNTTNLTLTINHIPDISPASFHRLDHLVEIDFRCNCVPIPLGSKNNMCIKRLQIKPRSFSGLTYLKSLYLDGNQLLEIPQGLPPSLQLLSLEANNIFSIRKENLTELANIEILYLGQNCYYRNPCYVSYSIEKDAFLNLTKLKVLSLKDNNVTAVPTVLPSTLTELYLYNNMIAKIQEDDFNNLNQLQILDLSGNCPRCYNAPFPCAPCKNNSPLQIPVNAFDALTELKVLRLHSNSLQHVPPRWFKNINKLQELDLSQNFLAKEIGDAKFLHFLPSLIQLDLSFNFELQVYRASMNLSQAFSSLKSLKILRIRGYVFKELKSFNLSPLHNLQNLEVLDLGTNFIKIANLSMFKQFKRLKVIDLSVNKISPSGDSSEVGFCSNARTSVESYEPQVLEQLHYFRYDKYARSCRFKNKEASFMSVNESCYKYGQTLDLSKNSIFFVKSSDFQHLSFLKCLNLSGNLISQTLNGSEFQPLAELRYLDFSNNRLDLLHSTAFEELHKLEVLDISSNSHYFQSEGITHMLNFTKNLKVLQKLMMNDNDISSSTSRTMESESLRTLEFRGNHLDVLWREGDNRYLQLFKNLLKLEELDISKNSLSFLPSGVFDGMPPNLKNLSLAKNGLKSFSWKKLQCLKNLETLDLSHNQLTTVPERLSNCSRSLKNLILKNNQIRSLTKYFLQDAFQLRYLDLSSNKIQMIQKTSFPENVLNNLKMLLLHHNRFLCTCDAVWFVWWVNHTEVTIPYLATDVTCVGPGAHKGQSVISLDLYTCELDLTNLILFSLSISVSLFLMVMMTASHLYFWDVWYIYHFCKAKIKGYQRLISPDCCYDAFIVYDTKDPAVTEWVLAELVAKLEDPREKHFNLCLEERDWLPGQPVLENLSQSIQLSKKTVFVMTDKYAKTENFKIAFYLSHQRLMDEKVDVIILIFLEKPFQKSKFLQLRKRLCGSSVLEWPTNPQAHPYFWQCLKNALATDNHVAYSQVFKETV
# Procedure, shortened: as §1
Structure (SMILES),pIC50 (human TLR9),pIC50 (human TLR8),pIC50 (human TLR7)
"Cc1c(-c2[nH]c3ccc(OC4CCN(C(C)C)CC4)cc3c2C(C)C)cn2cnnc2c1C [Example 57, 6-(3-isopropyl-5-((1-isopropylpiperidin-4-yl)oxy)-1H-indol-2-yl)-7,8-dimethyl-[1,2,4]triazolo[4,3-a]pyridine]",4.73,7.84,7.47
"Cc1cc(-c2[nH]c3ccc(OCc4ccc(N5CCOCC5)cc4)cc3c2C(C)C)ccn1 [Example 168, 4-(4-(((3-isopropyl-2-(2-methylpyridin-4-yl)-1H-indol-5-yl)oxy)methyl)phenyl)morpholine]",< 4.30,6.87,5.31
"Cc1cc(-c2[nH]c3ccc(OCC4CCN(C(=O)CN(C)C)CC4)cc3c2C(C)C)cc(C)n1 [Example 96, 2-(dimethylamino)-1-(4-(((2-(2,6-dimethylpyridin-4-yl)-3-isopropyl-1H-indol-5-yl)oxy)methyl)piperidin-1-yl)ethan-1-one]",6.46,8.01,8.59
"CNC(=O)CN1CCC(Oc2ccc3[nH]c(-c4cc(C)c(=O)n(C)c4)c(C(C)C)c3c2)CC1 [Example 112, 2-(4-((2-(1,5-dimethyl-6-oxo-1,6-dihydropyridin-3-yl)-3-isopropyl-1H-indol-5-yl)oxy)piperidin-1-yl)-N-methylacetamide]",< 4.30,8.05,7.99
"COc1ccc(-c2[nH]c3ccc(OCC(=O)N4C[C@H]5C[C@@H]4CN5)cc3c2C(C)C)cc1OC [Example 132, 1-((1R,4R)-2,5-diazabicyclo[2.2.1]heptan-2-yl)-2-((2-(3,4-dimethoxyphenyl)-3-isopropyl-1H-indol-5-yl)oxy)ethan-1-one]",5.70,7.80,7.23
"Cc1c(-c2[nH]c3ccc(OC4CCN(C(=O)CN(C)C)CC4)cc3c2C(C)C)cn(C)c(=O)c1C [Example 104, 5-(5-((1-(dimethylglycyl)piperidin-4-yl)oxy)-3-isopropyl-1H-indol-2-yl)-1,3,4-trimethylpyridin-2(1H)-one]",5.29,7.79,8.11
"Cc1cc(-c2[nH]c3ccc(OCC4CCN(C)CC4)cc3c2C(C)C)ccn1 [Example 188, 3-isopropyl-5-((1-methylpiperidin-4-yl)methoxy)-2-(2-methylpyridin-4-yl)-1H-indole]",5.81,8.68,7.35
"Cc1cc(-c2[nH]c3ccc(OC4CCC(N(C)C)CC4)cc3c2C(C)C)cn2ncnc12 (stereo not drawn) [Example 64, 4-((3-isopropyl-2-(8-methyl-[1,2,4]triazolo[1,5-a]pyridin-6-yl)-1H-indol-5-yl)oxy)-N,N-dimethylcyclohexan-1-amine]",5.59,7.97,9.15
"Cc1c(-c2[nH]c3ccc(OC4CCN(C(=O)CN(C)C)CC4)cc3c2C(C)C)cn2cnnc2c1C [Example 105, 1-(4-((2-(7,8-dimethyl-[1,2,4]triazolo[4,3-a]pyridin-6-yl)-3-isopropyl-1H-indol-5-yl)oxy)piperidin-1-yl)-2-(dimethylamino)ethan-1-one]",5.81,7.30,8.54
"Cc1c(-c2[nH]c3ccc(OC4CCN(C)CC4)cc3c2C(C)C)cn2cnnc2c1C [Example 53, 6-(3-isopropyl-5-((1-methylpiperidin-4-yl)oxy)-1H-indol-2-yl)-7,8-dimethyl-[1,2,4]triazolo[4,3-a]pyridine]",6.31,8.48,8.72
"Cc1cc(-c2[nH]c3ccc(OCCN4CCCC4)cc3c2C(C)C)ccn1 [Example 166, 3-isopropyl-2-(2-methylpyridin-4-yl)-5-(2-(pyrrolidin-1-yl)ethoxy)-1H-indole]",6.01,8.51,7.19
"Cc1c(-c2[nH]c3ccc(OCC4CN(C)C4)cc3c2C(C)C)cn2cnnc2c1C [Example 61, 6-(3-isopropyl-5-((1-methylazetidin-3-yl)methoxy)-1H-indol-2-yl)-7,8-dimethyl-[1,2,4]triazolo[4,3-a]pyridine]",5.20,6.36,6.31
"COc1cc(-c2[nH]c3ccc(OC4CCN(C(C)C)CC4)cc3c2C(C)C)cn2ncnc12 [Example 66, 6-(3-isopropyl-5-((1-isopropylpiperidin-4-yl)oxy)-1H-indol-2-yl)-8-methoxy-[1,2,4]triazolo[1,5-a]pyridine]",5.94,9.15,9.10
"COCCN1CCC(Oc2ccc3[nH]c(-c4cc(C)nc(C)c4)c(C(C)C)c3c2)CC1 [Example 75, 2-(2,6-dimethylpyridin-4-yl)-3-isopropyl-5-((1-(2-methoxyethyl)piperidin-4-yl)oxy)-1H-indole]",6.18,8.82,7.98
